Laboratory results taken from patent US6653478B2, “Substituted benzimidazol-2-ones as vasopressin receptor antagonists and neuropeptide Y modulators” (Ortho-McNeil Pharmaceutical, Inc., priority 2000, dated 2003).
Structures can show the parent of a compound that is named as a salt.

Legend:
human V1a receptor [1] = target: T1, human V1a receptor (Homo sapiens, UniProt P37288); test: V1a binding assay (3H-AVP displacement, HEK-293 membranes); set-up: expressed in transfected cells; host or cells: HEK-293 (membranes); details: for inhibition at 1 µM: 1.0 μM compound, read-out: V1a@1.0, % Inh
Outline: (§1)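 Membranes from transfected HEK-293 cells incubated 1 h at room temperature with ³H-AVP (10,000 cpm) in 50 mM Tris, 5 mM MgCl2, 0.1% BSA, pH 7.5 plus protease inhibitors. Non-specific binding set with 1.25 μM AVP. Bound tracer collected on PEI-soaked GF/C filters and counted by scintillation.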

human V1b receptor [2] = target: T2, human V1b receptor (Homo sapiens, UniProt P47901); test: V1b binding assay (3H-AVP displacement, HEK-293 membranes); set-up: expressed in transfected cells; host or cells: HEK-293 (membranes); details: 10 μM compound; read-out: V1b % Inh @10
T2 sequence (P47901 1-424): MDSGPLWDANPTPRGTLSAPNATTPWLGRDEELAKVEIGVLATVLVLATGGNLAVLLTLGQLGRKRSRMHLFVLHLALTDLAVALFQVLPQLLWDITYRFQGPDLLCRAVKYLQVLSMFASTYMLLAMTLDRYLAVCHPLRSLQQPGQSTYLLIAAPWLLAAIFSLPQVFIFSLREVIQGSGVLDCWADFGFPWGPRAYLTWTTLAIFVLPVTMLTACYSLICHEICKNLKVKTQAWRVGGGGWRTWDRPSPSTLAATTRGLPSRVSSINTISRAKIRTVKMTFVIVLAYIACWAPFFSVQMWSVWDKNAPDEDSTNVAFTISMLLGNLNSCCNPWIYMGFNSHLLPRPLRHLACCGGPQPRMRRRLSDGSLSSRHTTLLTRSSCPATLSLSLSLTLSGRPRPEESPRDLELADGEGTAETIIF
Outline: as §1

human V2 receptor [3] = target: T3, human V2 receptor (Homo sapiens, UniProt P30518); test: V2 binding assay (3H-AVP displacement, HEK-293 membranes); set-up: expressed in transfected cells; host or cells: HEK-293 (membranes); details: for inhibition at 10 µM: 10 μM compound, read-out: V2 % Inh @10; for inhibition at 1 µM: 1.0 μM compound, read-out: V2@1.0, % Inh
Outline: as §1

NPY2 receptors = target: T4, NPY2 receptors (Homo sapiens, UniProt P49146); test: Neuropeptide Y receptor binding assay (125I-PYY, KAN-TS cell membranes); details: 10 μM compound; read-out: NPY-2@10, % Inh
T4 construct: Cell Membranes from KAN-TS cells having NPY2 receptors; endogenous in cells; host or cells: KAN-TS cells (membranes)
T4 sequence (P49146 1-381): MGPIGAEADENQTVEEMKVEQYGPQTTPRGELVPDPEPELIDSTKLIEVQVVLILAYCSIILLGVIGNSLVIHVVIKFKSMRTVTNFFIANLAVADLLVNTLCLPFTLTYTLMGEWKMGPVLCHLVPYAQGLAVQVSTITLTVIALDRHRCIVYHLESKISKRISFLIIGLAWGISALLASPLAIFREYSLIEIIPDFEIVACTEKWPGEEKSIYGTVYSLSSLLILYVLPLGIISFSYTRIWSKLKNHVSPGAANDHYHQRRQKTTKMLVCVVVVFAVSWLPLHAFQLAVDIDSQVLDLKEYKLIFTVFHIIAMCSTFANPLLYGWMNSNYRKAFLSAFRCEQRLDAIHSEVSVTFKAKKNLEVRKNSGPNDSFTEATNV
Outline: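 Membranes from KAN-TS cells competed with 125I-PYY in binding buffer containing BSA, test compound at 10 μM final, 1 hr at room temperature. Nonspecific binding defined with 1 μM PYY final. Tubes centrifuged, washed with PBS and bound radioactivity gamma-counted.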

V1a = V1a (Rattus norvegicus, UniProt P30560); details: stated in literature; cited from earlier work
human V1a receptor [4] = target: T1, human V1a receptor; set-up: expressed in transfected cells; host or cells: HEK-293; details: stated in literature; cited from earlier work
human V1b receptor [5] = target: T2, human V1b receptor; test: V1b functional assay, intracellular calcium mobilization in transfected HEK-293 cells (FLIPR); type: cell-based; set-up: expressed in transfected cells; host or cells: HEK-293; details: HEK293; 30 μM compound; read-out: Cell-Based Functional activity V1b % Inh. @ 30
Method: (§2) V1a, V1b or V2 Functional Assay
(§3) HEK-293 cells were grown in DMEM media supplemented with 10% FBS and glutamine (Gibco BRL, Grand Island, N.Y.). Once transfected the cells were passed biweekly by trypsinization and seeded into 96 well plates at 33,000 cells per well. HEK-293 were transfected with human V1a, V1b or V2 DNA using DMRIE-C reagent from Life Technologies, Inc., Grand Island, N.Y. Cells were tested for their responsiveness to vasopressin 48 hours after transfection. Stable lines were generated by selecting cells grown in culture media containing geneticin (500 μg/ml, Life Technologies).
(§4) Intracellular calcium mobilization was measured in HEK-293 cells transfected to express either human V1a, oxytocin or V1b receptors. Cells were plated into black 96-well Packard Clear-View plates 4 to 7 days prior to use. The cells were loaded with fluo-3 AM (Molecular Probes, Inc., Eugene, Oreg.) in buffer (25 mM Hepes, 125 mM NaCl, 1 gm/l glucose, 0.1% BSA, 5 mM KCl, 0.5 mM CaCl2, 0.5 mM MgCl2, pH 7.45) containing Pluronic (Molecular Probes) Cells were incubated with 5 μM fluo-3 AM for 1 hour shielded from light at room temperature. Intracellular fluorescence was measured using FLIPR (fluorometric imaging plate reader; Molecular Devices, Inc., Sunnyvale, Calif.). The FLIPR protocol called for images to be collected at one second intervals with 50 μl of the test compound added after the initial 10 images. An additional 70 images were then taken to detect any compound agonistic activity. FLIPR then added 50 μl of agonist peptide and collected a final 40 images for quantitating compound antagonistic activity. V1a- and V1b-expressing HEK cells were challenged with 1 nM and 0.5 nM AVP, respectively. Oxytocin-expressing HEK cells were challenged with 0.5 nM oxytocin (Peninsula Labs).
(§5) The data from the cAMP accumulation and the calcium mobilization assays are expressed as IC50 values as determined from dose response curves.

human V2 receptor [6] = target: T3, human V2 receptor; test: V2 functional assay, cAMP accumulation in transfected HEK-293 cells; type: cell-based; set-up: expressed in transfected cells; host or cells: HEK-293; details: HEK293; 30 μM compound; read-out: Cell-Based Functional activity V2 % Inh. @ 30
Method: as §2, §3
The accumulation of cAMP was measured in transfected HEK-293 expressing the human V2 receptor. The cells were cultured 4-7 days in 96-well plates. On the day of assay, cells were washed twice in assay media (DMEM/F12 containing 0.1% BSA). The cells were treated with the test compound for 5 minutes and then given AVP (1 nM) in assay media containing 1 mM isobutylmethylxanthine. After 5 minutes, 0.5 N HCl was added to disrupt the cells and solubilize cAMP. The cAMP content of 20 μl of the cell lysate in each well was measured using cAMP Flashplates (NEN Life Sciences). Data are expressed as pmol cAMP/well. While the assay is optimized to detect and quantitate antagonistic activity, agonistic activity would also be apparent at the higher concentrations of test compounds.
as §5

human V1a receptor [7] = target: T1, human V1a receptor; test: V1a functional assay, intracellular calcium mobilization in transfected HEK-293 cells (FLIPR); set-up: expressed in transfected cells; host or cells: HEK-293; details: challenge 1 nM AVP; read-out: Cell-Based Functional activity V1a IC50
Method: as §2, §3, §4, §5

T3 sequence (P30518 whole entry): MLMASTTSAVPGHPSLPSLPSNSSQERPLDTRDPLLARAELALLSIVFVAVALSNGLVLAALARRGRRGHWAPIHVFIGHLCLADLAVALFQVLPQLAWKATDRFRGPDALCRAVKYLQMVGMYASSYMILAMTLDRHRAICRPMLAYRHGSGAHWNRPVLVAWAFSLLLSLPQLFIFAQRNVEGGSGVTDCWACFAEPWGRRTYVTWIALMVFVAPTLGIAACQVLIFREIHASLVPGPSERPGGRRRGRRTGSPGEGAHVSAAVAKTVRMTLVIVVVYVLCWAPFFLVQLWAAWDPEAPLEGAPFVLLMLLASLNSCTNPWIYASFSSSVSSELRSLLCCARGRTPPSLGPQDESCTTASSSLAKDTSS
T1 sequence (P37288 whole entry): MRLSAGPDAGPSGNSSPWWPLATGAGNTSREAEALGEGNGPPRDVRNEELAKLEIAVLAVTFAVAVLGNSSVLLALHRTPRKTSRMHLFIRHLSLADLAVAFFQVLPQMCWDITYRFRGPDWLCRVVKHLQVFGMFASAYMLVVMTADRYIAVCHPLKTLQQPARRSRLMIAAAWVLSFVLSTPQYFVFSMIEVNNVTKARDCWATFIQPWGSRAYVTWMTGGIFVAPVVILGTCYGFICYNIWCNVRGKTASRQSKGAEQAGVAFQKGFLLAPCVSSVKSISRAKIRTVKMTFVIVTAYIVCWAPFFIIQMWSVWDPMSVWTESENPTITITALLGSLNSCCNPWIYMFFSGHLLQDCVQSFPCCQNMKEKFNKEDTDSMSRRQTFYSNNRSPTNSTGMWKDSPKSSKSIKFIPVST
V1a, sequence (P30560 whole entry): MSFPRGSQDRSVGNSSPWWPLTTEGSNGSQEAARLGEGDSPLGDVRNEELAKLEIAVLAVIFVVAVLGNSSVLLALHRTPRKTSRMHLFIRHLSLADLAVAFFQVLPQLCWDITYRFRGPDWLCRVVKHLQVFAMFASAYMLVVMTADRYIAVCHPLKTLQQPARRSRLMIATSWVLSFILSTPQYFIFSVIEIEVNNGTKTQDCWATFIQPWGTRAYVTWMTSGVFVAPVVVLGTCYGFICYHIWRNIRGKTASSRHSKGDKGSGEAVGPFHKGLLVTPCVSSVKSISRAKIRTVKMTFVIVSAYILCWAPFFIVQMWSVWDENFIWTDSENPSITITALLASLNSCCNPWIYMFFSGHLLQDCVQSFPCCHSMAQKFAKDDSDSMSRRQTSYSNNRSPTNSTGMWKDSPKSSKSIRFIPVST

SMILES | inhibition at 10 µM (human V1b receptor [2]) [%] | melting point [°C] | inhibition at 10 µM (NPY2 receptors) [%] | inhibition at 1 µM (human V1a receptor [1]) [%] | inhibition at 1 µM (human V2 receptor [3]) [%] | also measured
O=c1[nH]c2ccccc2n1C1CCN(C(=S)NCC(c2ccccc2)c2ccccc2)CC1 [Compound 13] | 1 | 230 to 233 | 22 |  |  | IC50 (human V1a receptor [1]): 1200 nM; inhibition at 10 µM (human V2 receptor [3]): 4%
O=c1[nH]c2ccccc2n1C1CCN(C(=S)NCc2ccccc2Cl)CC1 [Compound 12] | 0 | 181 to 184 | 21 |  |  | IC50 (human V1a receptor [1]): 2500 nM; inhibition at 10 µM (human V2 receptor [3]): 5%
CC(=O)NCCCOc1ccc(C(=O)N2CCC(N3C(=O)CCc4ccccc43)CC2)cc1 [OPC 21268] |  |  |  |  |  | activity in rat (V1a): only active in rat; activity when tested for binding to human V1a receptor (human V1a receptor [4]): no activity
COC(=O)[C@@H](Cc1ccccc1)NC(=S)N1CCC(n2c(=O)n(CCCNC(=N)N)c3ccccc32)CC1 [Compound 58] |  |  | 2 | 52 |  | inhibition at 30 µM (human V1b receptor [5]): 0%; inhibition at 30 µM (human V2 receptor [6]): 0%; IC50 (human V1a receptor [7]): 1430 nM
COc1ccc(NC(=S)N2CCC(n3c(=O)[nH]c4ccccc43)CC2)cc1 [Compound 5] | 8 | 238 to 243 | 14 | 38 | 34 | 
NCCCn1c(=O)n(C2CCN(C(=S)NC(c3ccccc3)c3ccccc3)CC2)c2ccccc21 (as salt: hydrochloride) [Compound 55, 1-[(N1-Piperidinocarbothioyldiphenylmethylamino)-4-yl]-3-(3-aminopropyl)-1,3-dihydrobenzimidazol-2-one Monohydrochloride] |  | 189 to 190 |  |  |  | 
O=c1[nH]c2ccccc2n1C1CCN(C(=S)NCCc2ccc(Cl)cc2)CC1 [Compound 2] | 0 | 234 to 236 | 1 | 21 | 7 | 
O=c1[nH]c2ccccc2n1C1CCN(C(=S)Nc2ccccc2)CC1 [Compound 3] | 0 | 250 to 252 | 13 | 0 | 7 | 
